“And” between values parts separate entries of the source, which are not always exact repeats. Equal entries are not always repeated.
Test system: epithelial ovarian cancer (EOC)
Test: Tumour response and PFS per RECIST v1.1, EOC efficacy-evaluable population
Type: in vivo, human
Experimental: Tumour response was evaluated by RECIST v1.1. For patients with ovarian cancer, tumour response was assessed per RECIST v1.1 and by Gynecologic Cancer Intergroup (GCIG) CA-125 criteria. Tumour response for patients with prostate cancer was assessed by Prostate Cancer Clinical Trials Working Group 2 (PCWG2) criteria. Objective response rate (ORR) was defined as the proportion of patients achieving a confirmed complete response (CR) or partial response (PR) on study treatment. Blood tumour antigens (e.g., carcinoembryonic antigen for colorectal cancer, CA-125 for ovarian cancer and prostate-specific antigen [PSA] for mCRPC) were assessed during screening, every 6 weeks after the first pamiparib dose in the first 12 months, and every 9 weeks thereafter.
Analyses of ORR (95% confidence interval [CI]) by investigator assessment were performed using predefined subgroups of the EOC population, including age group (<65 years versus ≥65 years), baseline ECOG performance status (0 versus 1), solid tumour stage (Stage III versus IV), BRCA/HRD status (germline BRCA mutation versus wild-type or unknown; germline or somatic BRCA mutation versus wild-type or unknown; HRD-positive versus negative or unknown), and platinum response status (platinum-sensitive versus platinum-resistant versus platinum-refractory).
The safety population comprised all patients in the dose-escalation and dose-expansion phases who received at least one dose of pamiparib (Supplementary Table S2). Patients in the safety analysis set for whom valid pamiparib PK parameters were estimated and for whom evaluable PD results were available represented the PK population and the PD population, respectively. The efficacy-evaluable population included patients in the safety analysis set who had at least one evaluable postbaseline tumour assessment or those who discontinued due to clinical disease progression or early death before tumour assessment could be performed. The EOC efficacy-evaluable population was a subset of the overall efficacy-evaluable population that included patients with EOC from both the dose-escalation and dose-expansion phases. Patients in the dose-expansion phase without measurable disease at baseline per RECIST v1.1 were excluded from the efficacy-evaluable population.
Descriptive statistics were used to summarise all study data (see Supplemental Appendix). Progression-free survival (PFS) and event-free rates were estimated using the Kaplan–Meier method along with the corresponding 95% CI. Pharmacokinetic parameters were derived using standard non-compartmental methods with Phoenix WinNonlin Version 6.4 or higher (Pharsight Corp., Mountain View, California).

[1] = EOC evaluable for efficacy (N=60)
[2] = EOC, Total BID Dosage Group (n=51)
[3] = EOC, Total QD Dosage Group (n=9)
[4] = Total BID dosage group, EOC efficacy-evaluable (n = 51)

For `C[C@]12CCCN1CC1=NNC(=O)c3cc(F)cc4[nH]c2c1c34` [pamiparib], the CR [1] was 6.7%, the PR [1] was 31.7% and the “Event-free rate, 1 year” value (EOC, Total (N=60)) was 41.0 (26.93-54.59) % (95% CI). For the same compound, the “Event-free rate, 2 years” value (EOC, Total (N=60)) was 14.8 (5.46-28.41) % (95% CI), the “ORR, subgroup Age <65” value (EOC, Total (N=60)) was 39.5 (24.98-55.59) [43/60] % (95% CI) and the “ORR, subgroup Age ≥65” value (EOC, Total (N=60)) was 35.3 (14.21-61.67) [17/60] % (95% CI). For the same compound, the “ORR, subgroup Baseline ECOG performance status 0” value (EOC, Total (N=60)) was 45.8 (25.55-67.18) [24/60] % (95% CI), the “ORR, subgroup Baseline ECOG performance status ≥1” value (EOC, Total (N=60)) was 33.3 (18.56-50.97) [36/60] % (95% CI) and the “ORR, subgroup Germline BRCA status Mutant” value (EOC, Total (N=60)) was 66.7 (40.99-86.66) [18/60] % (95% CI). For the same compound, the “ORR, subgroup Germline BRCA status Wild-type/Unknown” value (EOC, Total (N=60)) was 26.2 (13.86-42.04) [42/60] % (95% CI), the “ORR, subgroup Germline or somatic BRCA status Mutant” value (EOC, Total (N=60)) was 61.3 (42.19-78.15) [31/60] % (95% CI) and the “ORR, subgroup Germline or somatic BRCA status Wild-type/Unknown” value (EOC, Total (N=60)) was 13.8 (3.89-31.66) [29/60] % (95% CI). For the same compound, the “ORR, subgroup HRD status Negative/Unknown” value (EOC, Total (N=60)) was 15.4 (4.36-34.87) [26/60] % (95% CI), the “ORR, subgroup HRD status Positive” value (EOC, Total (N=60)) was 55.9 (37.89-72.81) [34/60] % (95% CI) and the “ORR, subgroup Platinum-sensitivity status Refractory” value (EOC, Total (N=60)) was 8.3 (0.21-38.48) [12/60] % (95% CI). The “ORR, subgroup Platinum-sensitivity status Resistant” value (EOC, Total (N=60)) was 16.7 (4.74-37.38) [24/60] % (95% CI), the “ORR, subgroup Platinum-sensitivity status Sensitive” value (EOC, Total (N=60)) was 75.0 (53.29-90.23) [24/60] % (95% CI) and the “ORR, subgroup Solid tumor stage 3” value (EOC, Total (N=60)) was 45.5 (28.11-63.65) [33/60] % (95% CI). The “ORR, subgroup Solid tumor stage 4” value (EOC, Total (N=60)) was 26.1 (10.23-48.41) [23/60] % (95% CI), the “PFS censored: No disease progression or death” value (EOC, Total (N=60)) was 17 (28.3) n (%) and the “PFS censored: No postbaseline assessment” value (EOC, Total (N=60)) was 2 (3.3) n (%). The “PFS censored: ≥2 consecutive missed assessments” value (EOC, Total (N=60)) was 2 (3.3) n (%), the “PFS events: Death” value (EOC, Total (N=60)) was 9 (15.0) n (%) and the “PFS events: Disease progression” value (EOC, Total (N=60)) was 30 (50.0) n (%). The “PFS: Censored” value (EOC, Total (N=60)) was 21 (35.0) n (%), the “PFS: Events” value (EOC, Total (N=60)) was 39 (65.0) n (%) and the “Progression-Free Survival, Median” value (EOC, Total (N=60)) was 8.3 (5.45-13.67) months (95% CI). The “Event-free rate, 1 year” value [2] was 45.6 (29.51-60.25) % (95% CI), the “Event-free rate, 2 years” value [2] was 16.4 (5.98-31.33) % (95% CI) and the “ORR, subgroup Age <65” value [2] was 42.1 (26.31-59.18) [38/51] % (95% CI). The “ORR, subgroup Age ≥65” value [2] was 38.5 (13.86-68.42) [13/51] % (95% CI), the “ORR, subgroup Baseline ECOG performance status 0” value [2] was 47.8 (26.82-69.41) [23/51] % (95% CI) and the “ORR, subgroup Baseline ECOG performance status ≥1” value [2] was 35.7 (18.64-55.93) [28/51] % (95% CI). For the same compound, the “ORR, subgroup Germline BRCA status Mutant” value [2] was 73.3 (44.90-92.21) [15/51] % (95% CI), the “ORR, subgroup Germline BRCA status Wild-type/Unknown” value [2] was 27.8 (14.20-45.19) [36/51] % (95% CI) and the “ORR, subgroup Germline or somatic BRCA status Mutant” value [2] was 64.3 (44.07-81.36) [28/51] % (95% CI). For the same compound, the “ORR, subgroup Germline or somatic BRCA status Wild-type/Unknown” value [2] was 13.0 (2.78-33.59) [23/51] % (95% CI), the “ORR, subgroup HRD status Negative/Unknown” value [2] was 14.3 (3.05-36.34) [21/51] % (95% CI) and the “ORR, subgroup HRD status Positive” value [2] was 60.0 (40.60-77.34) [30/51] % (95% CI). For the same compound, the “ORR, subgroup Platinum-sensitivity status Refractory” value [2] was 9.1 (0.23-41.28) [11/51] % (95% CI), the “ORR, subgroup Platinum-sensitivity status Resistant” value [2] was 21.1 (6.05-45.57) [19/51] % (95% CI) and the “ORR, subgroup Platinum-sensitivity status Sensitive” value [2] was 76.2 (52.83-91.78) [21/51] % (95% CI). The “ORR, subgroup Solid tumor stage 3” value [2] was 53.6 (33.87-72.49) [28/51] % (95% CI), the “ORR, subgroup Solid tumor stage 4” value [2] was 23.8 (8.22-47.17) [21/51] % (95% CI) and the “PFS censored: No disease progression or death” value [2] was 15 (29.4) n (%). For the same compound, the “PFS censored: No postbaseline assessment” value [2] was 2 (3.9) n (%), the “PFS censored: ≥2 consecutive missed assessments” value [2] was 2 (3.9) n (%) and the “PFS events: Death” value [2] was 6 (11.8) n (%). For the same compound, the “PFS events: Disease progression” value [2] was 26 (51.0) n (%), the “PFS: Censored” value [2] was 19 (37.3) n (%) and the “PFS: Events” value [2] was 32 (62.7) n (%). The “Progression-Free Survival, Median” value [2] was 9.9 (5.49-14.62) months (95% CI), the “Best overall response: Complete response” value (EOC, Total BID and QD (N=60)) was 4 (6.7) n (%) and the “Best overall response: Not assessed” value (EOC, Total BID and QD (N=60)) was 3 (5.0) n (%). The “Best overall response: Not evaluable” value (EOC, Total BID and QD (N=60)) was 2 (3.3) n (%), the “Best overall response: Partial response” value (EOC, Total BID and QD (N=60)) was 19 (31.7) n (%) and the “Best overall response: Progressive disease” value (EOC, Total BID and QD (N=60)) was 2 (3.3) n (%). For the same compound, the “Best overall response: Stable disease” value (EOC, Total BID and QD (N=60)) was 30 (50.0) n (%), the Clinical benefit rate (EOC, Total BID and QD (N=60)) was 51.7 (38.39-64.77) % (95% CI) and the Disease control rate (EOC, Total BID and QD (N=60)) was 88.3 (77.43-95.18) % (95% CI). The Objective response rate (EOC, Total BID and QD (N=60)) was 38.3 (26.07-51.79) % (95% CI), the “Best overall response: Complete response” value [3] was 0 (0) n (%) and the “Best overall response: Not assessed” value [3] was 0 (0) n (%). The “Best overall response: Not evaluable” value [3] was 1 (11.1) n (%), the “Best overall response: Partial response” value [3] was 2 (22.2) n (%) and the “Best overall response: Progressive disease” value [3] was 0 (0) n (%). For the same compound, the “Best overall response: Stable disease” value [3] was 6 (66.7) n (%), the Clinical benefit rate [3] was 33.3 (7.49-70.07) % (95% CI) and the Disease control rate [3] was 88.9 (51.75-99.72) % (95% CI). For the same compound, the “ORR, subgroup Age <65” value [3] was 20.0 (0.51-71.64) [5/9] % (95% CI), the “ORR, subgroup Age ≥65” value [3] was 25.0 (0.63-80.59) [4/9] % (95% CI) and the “ORR, subgroup Baseline ECOG performance status 0” value [3] was 0.0 (0.00-97.50) [1/9] % (95% CI). The “ORR, subgroup Baseline ECOG performance status ≥1” value [3] was 25.0 (3.19-65.09) [8/9] % (95% CI), the “ORR, subgroup Germline BRCA status Mutant” value [3] was 33.3 (0.84-90.57) [3/9] % (95% CI) and the “ORR, subgroup Germline BRCA status Wild-type/Unknown” value [3] was 16.7 (0.42-64.12) [6/9] % (95% CI). The “ORR, subgroup Germline or somatic BRCA status Mutant” value [3] was 33.3 (0.84-90.57) [3/9] % (95% CI), the “ORR, subgroup Germline or somatic BRCA status Wild-type/Unknown” value [3] was 16.7 (0.42-64.12) [6/9] % (95% CI) and the “ORR, subgroup HRD status Negative/Unknown” value [3] was 20.0 (0.51-71.64) [5/9] % (95% CI). For the same compound, the “ORR, subgroup HRD status Positive” value [3] was 25.0 (0.63-80.59) [4/9] % (95% CI), the “ORR, subgroup Platinum-sensitivity status Sensitive” value [3] was 66.7 (9.43-99.16) [3/9] % (95% CI) and the “ORR, subgroup Solid tumor stage 3” value [3] was 0.0 (0.00-52.18) [5/9] % (95% CI). The “ORR, subgroup Solid tumor stage 4” value [3] was 50.0 (1.26-98.74) [2/9] % (95% CI), the Objective response rate [3] was 22.2 (2.81-60.01) % (95% CI) and the “PFS censored: No disease progression or death” value [3] was 2 (22.2) n (%). For the same compound, the “PFS censored: No postbaseline assessment” value [3] was 0 (0) n (%), the “PFS censored: ≥2 consecutive missed assessments” value [3] was 0 (0) n (%) and the “PFS events: Death” value [3] was 3 (33.3) n (%). For the same compound, the “PFS events: Disease progression” value [3] was 4 (44.4) n (%), the “PFS: Censored” value [3] was 2 (22.2) n (%) and the “PFS: Events” value [3] was 7 (77.8) n (%). For the same compound, the “Progression-Free Survival, Median” value [3] was 4.9 (1.84-NE) months (95% CI), the “Best overall response: Complete response” value [4] was 4 (7.8) n (%) and the “Best overall response: Not assessed” value [4] was 3 (5.9) n (%). For the same compound, the “Best overall response: Not evaluable” value [4] was 1 (2.0) n (%), the “Best overall response: Partial response” value [4] was 17 (33.3) n (%) and the “Best overall response: Progressive disease” value [4] was 2 (3.9) n (%). The “Best overall response: Stable disease” value [4] was 24 (47.1) n (%), the Clinical benefit rate [4] was 54.9 (40.3–68.9) % (95% CI) and 54.9 (40.34-68.87) % (95% CI) and the Disease control rate [4] was 88.2 (76.1–95.6) % (95% CI) and 88.2 (76.13-95.56) % (95% CI). The Objective response rate [4] was 41.2 (27.6–55.8) % (95% CI) and 41.2 (27.58-55.83) % (95% CI).
